Experimental findings from a flash point compilation (Sun et al. 2020) are described below.

Several values for one entry are separate records, joined by “and”; a condition that tells them apart may be missing. Equal entries are not always repeated. Structures can show the parent of a compound that is named as a salt.

Regarding `CC(C)C(C)S` (stereo not given) [3-methyl-2-butanethiol], the flash point is 19 °C. Compound `CC(=O)C(C)C` [3-methyl-2-butanone] yielded a flash point of 6 °C. The same measure for `CC=C(C)CC` [3-methyl-2-pentene]: -6 °C; for `CCC(C)C(CC)CC` (stereo not given) [3-methyl-4-ethylhexane]: 24 °C; for `CC1CCCC(O)C1` (stereo not given) [3-methylcyclohexanol]: 62 °C. The value for `CCCCC(C)CC` (stereo not given) [3-methylheptane] was 7 °C. The value for `CCCC(C)CC` (stereo not given) [3-methylhexane] was -3 °C; that for `Cc1cccnc1` [3-methylpyridine] was 38 °C. Consider `Cc1ccsc1` [3-methylthiophene], for which the flash point was found to be 11 °C. The value for `Cc1cccnc1` [3-picoline] was 40 °C; that for `Oc1ccc(Cl)cc1` [4-chlorophenol] was 115 °C; that for `Cc1ccc(Cl)cc1` [4-chlorotoluene] was 49 °C. As to `CC(C)CCCO` [4-methyl-1-pentanol], the flash point worked out at 51 °C. The value for `C=CCC(C)C` [4-methyl-1-pentene] was -31 °C. The same measure for `CSCCC=O` [4-thiapentanal]: 58 °C; for `C=CC1CC=CCC1` (stereo not given) [4-vinyl-1-cyclohexene]: 16 °C. Compound `C#CCCCCl` [5-chloro-1-pentyne] registered a flash point of 15 °C. The value for `CC=C1CC2C=CC1C2` (stereo not given) [5-ethylidene-2-norbornene] was 38 °C. The value for `C=CCCCCO` [5-hexen-1-ol] was 47 °C; that for `CC(=O)CCC(C)C` [5-methyl-2-hexanone] was 36 °C. The same measure for `CCC(=O)CC(C)CC` (stereo not given) [5-methyl-3-heptanone]: 43 °C. `C=CCCCCCCCCO` [9-decen-1-ol] returned a flash point of 119 °C.

Consider `CCN(C)CC` [N,N-diethylmethylamine], for which the flash point is -23 °C. Turning to `CCNC(C)C` [N-ethylisopropylamine], the flash point was 16 °C. `CC=NO` [acetaldoxime] registered a flash point of 36 °C.

Turning to `CC(=O)OC(C)=O` [acetic anhydride], the flash point turned out to be 49 °C. Turning to `CC(=O)c1ccccc1` [acetophenone], the flash point worked out at 82 °C. The same measure for `C=CC#N` [acrylonitrile]: -1 °C. `C=CCOC(C)=O` [allyl acetate] showed a flash point of 6 °C.

In turn, `C=C(C)c1ccccc1` [alpha-methylstyrene] gave a flash point of 45 °C. The same measure for `O=Cc1ccccc1` [benzaldehyde]: 62 °C; for `c1ccc2occc2c1` [benzofuran]: 56 °C; for `OCc1ccccc1` [benzyl alcohol]: 93 °C. In turn, `O=C(OCc1ccccc1)c1ccccc1` [benzyl benzoate] yielded a flash point of 147 °C. The same measure for `N#CCc1ccccc1` [benzyl cyanide]: 101 °C; for `CCCCOCC` [butyl ethyl ether]: -5 °C. As for `CCCCN=C=O` [butyl isocyanate], the flash point was 29 °C. For `CCCC=O` [butyraldehyde], the flash point was -6 °C. The value for `CCCC(=O)OC(=O)CCC` [butyric anhydride] was 87 °C; that for `Clc1ccccc1` [chlorobenzene] was 27 °C. `O=CC=Cc1ccccc1` [cinnamaldehyde] registered a flash point of 71 °C.

Regarding `C[C@H]1CC[C@@H](C)CC1` [cis-1,4-dimethylcyclohexane], the flash point is 6 °C. The value for `C/C=C/C(=O)O` [crotonic acid] was 88 °C; that for `C1CCC1` [cyclobutane] was -65 °C; that for `NC1CCC1` [cyclobutylamine] was -4 °C. The same measure for `OC1CCCCCC1` [cycloheptanol]: 71 °C; for `O=C1CCCCCC1` [cycloheptanone]: 55 °C; for `NC1CCCCC1` [cyclohexylamine]: 28 °C. Regarding `OC1CCCC1` [cyclopentanol], the flash point turned out to be 51 °C. In turn, `C1CC1` [cyclopropane] showed a flash point of -95 °C.

`CC(C)(C)SC(C)(C)C` [di-t-butyl sulfide] came in with a flash point of 48 °C. The value for `CCSSCC` [diethyl disulfide] was 40 °C; that for `CCOC(=O)/C=C/C(=O)OCC` [diethyl fumarate] was 91 °C. The value for `CCNCC` [diethylamine] was -26 °C and -23 °C; that for `CCCCOCCOCCOCCCC` [diethylene glycol dibutyl ether] was 117 °C.

In turn, `CC(C)CC(=O)CC(C)C` [diisobutyl ketone] yielded a flash point of 49 °C. Regarding `COC` [dimethylether], the flash point is -83 °C.

On to `CS(C)=O` [dimethylsulfoxide], for which the flash point is 88 °C. The value for `CCCCCOCCCCC` [dipentylether] was 57 °C; that for `c1ccc(Cc2ccccc2)cc1` [diphenylmethane] was 127 °C. `CCCCCCCCCCCCCCCCCCCC` [eicosane] came in with a flash point of 169 °C. Turning to `CC=O` [ethanal], the flash point is -39 °C. The compound `CCS` [ethanethiol] yielded a flash point of -48 °C. The compound `CC(=O)O` [ethanoic acid] displayed a flash point of 39 °C. The same measure for `C=CC(=O)OCC` [ethyl acrylate]: 9 °C; for `CCCC(=O)OCC` [ethyl butyrate]: 19 °C; for `CCOC(=O)C(C)C` [ethyl isobutyrate]: 13 °C.

On to `C=COCC` [ethyl vinyl ether], for which the flash point was -45 °C.

`CCN` [ethylamine] had a flash point of -17 °C. Consider `Fc1ccccc1` [fluorobenzene], for which the flash point was -15 °C. In turn, `OCc1ccco1` [furfuryl alcohol] came in with a flash point of 65 °C. The value for `CCCCCCC#N` [heptanenitrile] was 58 °C.

For the compound `C1CCCNCC1` [hexamethyleneimine], the flash point came to 18 °C.

With `CC(C)COC=O` [isobutyl formate], the flash point was determined as 10 °C. In turn, `CC(C)C=O` [isobutyraldehyde] displayed a flash point of -24 °C. The value for `CC(C)C(=O)O` [isobutyric acid] was 55 °C. Compound `CC(=O)OCCC(C)C` [isopentyl acetate] yielded a flash point of 25 °C. Consider `CC1=CC(=O)CC(C)(C)C1` [isophorone], for which the flash point worked out at 84 °C. The value for `CC(=O)OC(C)C` [isopropyl acetate] was 2 °C; that for `CC(C)OC(C)C` [isopropyl ether] was -29 °C; that for `CC(C)C1CCCCC1` [isopropylcyclohexane] was 35 °C.

Turning to `Clc1cccc(Cl)c1` [m-dichlorobenzene], the flash point amounted to 63 °C. The value for `CC(=O)C=C(C)C` [mesityl oxide] was 25 °C.

Turning to `Cc1cc(C)cc(C)c1` [mesitylene], the flash point amounted to 50 °C. Consider `C=C(C)C#N` [methacrylonitrile], for which the flash point is 1 °C.

Turning to `COC(=O)c1ccccc1` [methyl benzoate], the flash point was 83 °C.

For the compound `CN=C=S` [methyl isothiocyanate], the flash point stood at 32 °C.

Take `COC(=O)c1ccccc1O` [methyl salicylate]: the flash point was 96 °C. The value for `CCC(C)OC` (stereo not given) [methyl sec-butyl ether] was -30 °C; that for `CCC(C)(C)OC` [methyl tert-pentyl ether] was -11 °C.

In the case of `CN` [methylamine], the flash point was -62 °C. The compound `CN(CCO)CCO` [methyldiethanolamine] showed a flash point of 138 °C. For `CCCCOC(C)=O` [n-butyl acetate], the flash point was 22 °C.

`CCCCON=O` [n-butyl nitrite] gave a flash point of -13 °C. In turn, `CCCC(=O)O` [n-butyric acid] displayed a flash point of 69 °C. For `CCCC#N` [n-butyronitrile], the flash point turned out to be 16 °C.

The compound `CCCCCCCCCC` [n-decane] had a flash point of 51 °C.

`CCCOCCC` [n-propyl ether] came in with a flash point of -28 °C. The value for `CCCCCCCC#N` [octanenitrile] was 73 °C; that for `CCCCCCCCN` [octylamine] was 60 °C; that for `Clc1ccc(Cl)cc1` [p-dichlorobenzene] was 66 °C. Turning to `CCCCCc1ccccc1` [pentylbenzene], the flash point is 65 °C. `O=C1OC(=O)c2ccccc21` [phthalic anhydride] returned a flash point of 152 °C.

For `C1CCNCC1.Cl` [piperidine hydrochloride], the flash point came out at 65 °C. Compound `CCC=O` [propionaldehyde] came in with a flash point of -40 °C. The value for `CCCOC(=O)CCC` [propyl butyrate] was 37 °C; that for `c1cncnc1` [pyrimidine] was 31 °C; that for `CCC(C)O` (stereo not given) [sec-butanol] was 26 °C. For the compound `CCC(C)OC(C)=O` (stereo not given) [sec-butyl acetate], the flash point was 16 °C.

Compound `CC(=O)CC(=O)OC(C)(C)C` [t-butyl acetoacetate] had a flash point of 60 °C. The value for `CC(C)(C)c1ccccc1` [t-butylbenzene] was 60 °C. The same measure for `CC(C)(C)C1CCCCC1` [t-butylcyclohexane]: 42 °C; for `CCC(C)(C)O.CCC(C)(C)O` [tert-amyl alcohol (2-methyl-2-butanol)]: 20 °C; for `CCCCN(CCCC)CCCC` [tributylamine]: 72 °C. `CCOC(OCC)OCC` [triethoxymethane] yielded a flash point of 30 °C.
